Tests used:
[1] = target: T1, system Xc^− (Homo sapiens, UniProt Q9UPY5); experiment: [^14C]L-Cystine uptake assay; type: cell-based; set-up: endogenous in cells; host or cells: H4 cells; details: H4 cells, sodium-free HEPES buffer, 0.5 μM L-[14C]Cystine and 4.5 μM L-Cystine, 1 hour at 37° C.; read-out: pIC50 [^14C] L-Cystine uptake assay (converted)
T1 sequence (Q9UPY5 1-501): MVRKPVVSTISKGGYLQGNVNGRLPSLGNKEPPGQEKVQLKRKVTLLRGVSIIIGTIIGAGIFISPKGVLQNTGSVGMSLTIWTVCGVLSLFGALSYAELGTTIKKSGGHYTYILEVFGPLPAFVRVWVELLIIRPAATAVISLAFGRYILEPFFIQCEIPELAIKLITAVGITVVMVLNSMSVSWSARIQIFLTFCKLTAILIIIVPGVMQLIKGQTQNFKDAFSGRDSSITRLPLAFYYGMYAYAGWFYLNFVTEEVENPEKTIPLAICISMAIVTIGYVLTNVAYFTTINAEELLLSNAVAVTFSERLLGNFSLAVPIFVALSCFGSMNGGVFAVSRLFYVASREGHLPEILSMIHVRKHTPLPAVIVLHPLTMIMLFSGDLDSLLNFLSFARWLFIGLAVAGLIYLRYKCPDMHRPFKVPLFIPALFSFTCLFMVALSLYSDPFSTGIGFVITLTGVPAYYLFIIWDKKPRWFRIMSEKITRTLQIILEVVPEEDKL
T1 sequence (P08195 1-529 partner): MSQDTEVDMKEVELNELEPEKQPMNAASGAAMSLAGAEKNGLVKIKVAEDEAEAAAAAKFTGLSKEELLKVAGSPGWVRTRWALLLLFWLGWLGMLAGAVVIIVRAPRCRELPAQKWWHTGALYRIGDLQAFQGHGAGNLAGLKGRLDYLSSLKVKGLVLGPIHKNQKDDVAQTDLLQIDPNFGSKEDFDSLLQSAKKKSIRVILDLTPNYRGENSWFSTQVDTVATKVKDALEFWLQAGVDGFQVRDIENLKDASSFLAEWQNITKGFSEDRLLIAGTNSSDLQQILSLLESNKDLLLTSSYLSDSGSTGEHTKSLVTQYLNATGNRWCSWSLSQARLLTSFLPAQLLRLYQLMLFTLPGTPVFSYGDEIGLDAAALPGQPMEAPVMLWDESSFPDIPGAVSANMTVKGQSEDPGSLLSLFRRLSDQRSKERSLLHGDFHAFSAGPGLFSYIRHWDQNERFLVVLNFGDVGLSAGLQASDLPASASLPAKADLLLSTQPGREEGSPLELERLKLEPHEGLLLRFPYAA
Outline: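 Compound effect is given as pIC50, taken between controls of 1% DMSO and 50 μM Erastin. Human H4 cells were pretreated 15 min with compound in sodium-free buffer, then took up 0.5 μM [14C]cystine with 4.5 μM cold cystine for 1 hour at 37° C, read by scintillation proximity counting.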

[2] = target: T1, system Xc^−; experiment: Cystine-induced glutamate release assay; type: cell-based; set-up: endogenous in cells; host or cells: H4 cells; details: H4 cells, sodium-free HEPES buffer, 50 μM L-Cystine, 2 hours, Amplex Red glutamate readout; read-out: pIC50 Cystine-induced glutamate release assay (converted)
Outline: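 IC50 (reported as pIC50) normalized to DMSO 1% and Erastin 50 μM controls, from Amplex Red fluorescence of glutamate exported into supernatant. H4 cells were washed into sodium-free buffer to exclude EAAT transport, then given compound with 50 μM L-cystine for 2 h in the incubator.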

[3] = target: T1, system Xc^−; details: background statement, no data given; cited from earlier work

With `Cc1cc2c(c(C#N)n1)-c1ncccc1CC(=O)N2CC(=O)Nc1ccc(C(F)(F)F)cc1` [#392, 2-(15-cyano-13-methyl-9-oxo-3,10,14-triazatricyclo[9.4.0.0^2,7]pentadeca-1(11),2,4,6,12,14-hexaen-10-yl)-N-[4-(trifluoromethyl)phenyl]acetamide] the IC50 [1] was 15.8 to 39.8 nM and the IC50 [2] was 39.8 to 100 nM.

In the case of `COc1ccc2c(c1)C(C)C(=O)N(CC(=O)Nc1ccc(C(F)(F)F)cc1)c1cc(C)nc(Cl)c1-2` (stereo not shown) [#393, 2-(1-chloro-9-methoxy-3,7-dimethyl-6-oxo-7H-pyrido[3,4-a][3]benzazepin-5-yl)-N-[4-(trifluoromethyl)phenyl]acetamide], the IC50 [1] is reported as 15.8 to 39.8 nM and the IC50 [2] is reported as 39.8 to 100 nM.

`CC1C(=O)N(CC(=O)Nc2ccc(C(F)F)cc2)c2cc(Cl)nc(Cl)c2-c2cccnc21` (stereo not shown) [#395, 2-(3,5-dichloro-10-methyl-9-oxo-4,8,12-triazatricyclo[9.4.0.0^2,7]pentadeca-1(11),2(7),3,5,12,14-hexaen-8-yl)-N-[4-(difluoromethyl)phenyl]acetamide] showed an IC50 [1] of 39.8 to 100 nM and an IC50 [2] of 15.8 to 39.8 nM.

Molecule `COc1nc2c(cc1CO)N(CC(=O)Nc1ccc(Cl)c(F)c1)C(=O)C(C)c1ccccc1-2` (stereo not shown) [#399, N-(4-chloro-3-fluoro-phenyl)-2-[3-(hydroxymethyl)-2-methoxy-7-methyl-6-oxo-7H-pyrido[3,2-d][3]benzazepin-5-yl]acetamide] has an IC50 [1] of 15.8 to 39.8 nM and an IC50 [2] of 39.8 to 100 nM.

`COc1ncc(F)c2c1-c1ccccc1C(C)C(=O)N2CC(=O)Nc1ccc(Cl)c(F)c1` (stereo not shown) [#400, N-(4-chloro-3-fluoro-phenyl)-2-(4-fluoro-1-methoxy-7-methyl-6-oxo-7H-pyrido[4,3-d][3]benzazepin-5-yl)acetamide] gave an IC50 [1] of 100 to 501 nM and an IC50 [2] of 39.8 to 100 nM.

With `Cc1cc2c(c(F)n1)-c1ccccc1C(C)C(=O)N2CC(=O)Nc1ccc(Cl)c(F)c1` (stereo not shown) [#402, N-(4-chloro-3-fluoro-phenyl)-2-(1-fluoro-3,7-dimethyl-6-oxo-7H-pyrido[3,4-a][3]benzazepin-5-yl)acetamide] the IC50 [1] was < 15.8 nM and the IC50 [2] was < 15.8 nM.

Work on `Cc1cc2c(c(F)n1)-c1ccc(F)cc1C(C)C(=O)N2CC(=O)Nc1ccc(Cl)c(F)c1` (stereo not shown) [#404, N-(4-chloro-3-fluoro-phenyl)-2-(1,9-difluoro-3,7-dimethyl-6-oxo-7H-pyrido[3,4-a][3]benzazepin-5-yl)acetamide] yielded an IC50 [1] of 39.8 to 100 nM and an IC50 [2] of 15.8 to 39.8 nM.

`CC1C(=O)N(CC(=O)Nc2ccc(Cl)c(F)c2)c2ccnc(OC(F)F)c2-c2cccnc21` (stereo not shown) [#412, N-(4-chloro-3-fluoro-phenyl)-2-[3-(difluoromethoxy)-10-methyl-9-oxo-4,8,12-triazatricyclo[9.4.0.0^2,7]pentadeca-1(15),2,4,6,11,13-hexaen-8-yl]acetamide] gave an IC50 [1] of 39.8 to 100 nM and an IC50 [2] of 39.8 to 100 nM.

With `Cc1cc2c(c(F)n1)-c1ncc(F)cc1CC(=O)N2CC(=O)Nc1ccc(Cl)c(F)c1` [#417, N-(4-chloro-3-fluoro-phenyl)-2-(5,15-difluoro-13-methyl-9-oxo-3,10,14-triazatricyclo[9.4.0.0^2,7]pentadeca-1(11),2,4,6,12,14-hexaen-10-yl)acetamide] the IC50 [1] was 15.8 to 39.8 nM and the IC50 [2] was 39.8 to 100 nM.

`O=C(CN1C(=O)Cc2ncccc2-c2c1cc(N1CC3(C1)CC3(F)F)nc2F)Nc1ccc(C(F)F)cc1` [#421, 2-[5-(2,2-difluoro-5-azaspiro[2.3]hexan-5-yl)-3-fluoro-9-oxo-4,8,12-triazatricyclo[9.4.0.0^2,7]pentadeca-1(11),2(7),3,5,12,14-hexaen-8-yl]-N-[4-(difluoromethyl)phenyl]acetamide] gave an IC50 [1] of 15.8 to 39.8 nM and an IC50 [2] of 15.8 to 39.8 nM.

In the case of `O=C(O)c1cc(/N=N/c2ccc(S(=O)(=O)Nc3ccccn3)cc2)ccc1O` [Sulfasalazine], the “inhibition of the System Xc− antiporter” value [3] is given as “non-selective inhibitor” and the “potency on human System Xc− function” value [3] is given as “low”.
